Measurements as given in patent US5324648A, “Substituted isocoumarins as serine protease inhibitors and anti-inflammatory agents” (Georgia Tech Research Corporation, priority 1992, dated 1994).
Where two headings read alike, the source gives them in different places.

Key:
[1] = Prothrombin time (PT), human plasma
[2] = Activated partial thromboplastin time (APTT), human plasma
Cl^- r = biological target: T1, Cl^- r (Homo sapiens, UniProt P00736); experiment: Inactivation rate of complement protein C1r; assay type: biochemical; settings: Table II; pH 7.5, 25° C; [I] 4.6 to 470 μM; read-out: kobs/[I]
T1 construct: Cl^- r^f
T1 sequence (P00736 464-705 limits assumed): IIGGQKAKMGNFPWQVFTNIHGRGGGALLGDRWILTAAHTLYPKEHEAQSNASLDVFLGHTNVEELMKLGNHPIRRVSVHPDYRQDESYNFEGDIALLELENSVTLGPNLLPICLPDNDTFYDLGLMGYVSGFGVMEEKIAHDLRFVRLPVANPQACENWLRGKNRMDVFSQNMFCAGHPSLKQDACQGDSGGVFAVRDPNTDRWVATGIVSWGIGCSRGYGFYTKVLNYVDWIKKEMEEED
T1 sequence (P00736 18-463 partner limits assumed): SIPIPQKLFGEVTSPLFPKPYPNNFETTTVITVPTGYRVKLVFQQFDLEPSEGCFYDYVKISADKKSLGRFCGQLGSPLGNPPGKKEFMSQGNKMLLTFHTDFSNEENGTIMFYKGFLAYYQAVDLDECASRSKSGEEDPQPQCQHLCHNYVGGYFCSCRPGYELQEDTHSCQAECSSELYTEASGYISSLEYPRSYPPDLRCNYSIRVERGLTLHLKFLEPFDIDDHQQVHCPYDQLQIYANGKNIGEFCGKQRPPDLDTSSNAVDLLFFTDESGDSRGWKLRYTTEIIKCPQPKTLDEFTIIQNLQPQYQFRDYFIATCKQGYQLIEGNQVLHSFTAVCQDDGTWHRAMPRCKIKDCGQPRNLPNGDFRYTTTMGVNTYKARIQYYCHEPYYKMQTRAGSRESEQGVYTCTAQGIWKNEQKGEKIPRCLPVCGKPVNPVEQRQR
Description: Inactivation rates of serine proteases by substituted isocoumarins were measured by the incubation method. An aliquot of inhibitor (25 or 50 μl) in Me2 SO was added to a buffered enzyme solution (0.01-2.3 μM) to initiate the inactivation. Aliquots (50 μl) were withdrawn at various intervals and the residual enzymatic activity was measured. Me2 SO concentration in the reaction mixture was 8-12% (v/v). 0.1 Hepes, 0.01M CaCl2, pH 7.5 buffer was utilized for trypsin and coagulation enzymes. 0.1M Hepes, 0.5M NaCl, pH 7.5 was utilized for other serine proteases. The inhibitor concentrations are shown in all the tables. Peptide thioesters or peptide nitroanilides with appropriate sequence were used as substrates for various serine proteases. All peptide thioester hydrolysis rates were measured with assay mixtures containing 4,4'-dithiodipyridine (ε324 =19800M^-1 cm^-1; Grasetti & Murray, Arch. Biochem. Biophys. 119, pp 41-49 (1967)). Peptide 4-nitroanilide nitroanilide hydrolysis was measured at 410 nm (ε410 =8800M^-1 cm^-1; Erlanger et al., Arch. Biochem. Biophys. 95, pp 271-278 (1961)). First order inactivation rate constant (kobs) were obtained from plots of ln (vt /vo) vs time, and the correlation coefficients were greater than 0.98.
^a Conditions were 0.1M Hepes, 0.5M NaCl, pH 7.5, 8-10% Me2 SO
and 25° C. Inactivation rates were measured by incubation method.
Enzyme concentrations were as follows: protein D, 1-9 μM; C2, 0.7-1
μM; B, 1.8 μM; Bb, 0.3-0.8 μM; Cl^- s, 0.07 μM; Cl^-

chymotrypsin = chymotrypsin (Bos taurus, UniProt P00766); experiment: Inactivation of chymotrypsin; assay type: biochemical, bovine; settings: pH 7.5, 25° C, read-out: kobs/[I]
bovine trypsin = biological target: T2, bovine trypsin (Bos taurus, UniProt P00760); experiment: Inactivation rate of bovine trypsin; assay type: biochemical; settings: read-out: kobs/[I]
T2 sequence (P00760 24-246): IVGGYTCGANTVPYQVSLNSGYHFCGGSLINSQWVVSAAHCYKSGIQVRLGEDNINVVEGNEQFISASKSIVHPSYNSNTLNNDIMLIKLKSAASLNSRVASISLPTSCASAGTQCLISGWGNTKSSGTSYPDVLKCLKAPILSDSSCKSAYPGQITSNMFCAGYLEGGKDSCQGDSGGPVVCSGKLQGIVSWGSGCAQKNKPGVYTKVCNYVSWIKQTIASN
Procedure, shortened: (§1)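 Residual activity was followed on peptide thioester (with 4,4'-dithiodipyridine, 324 nm) or 4-nitroanilide (410 nm) substrates after enzyme (0.01-2.3 μM) was incubated with isocoumarin at 25° C in 0.1M Hepes, 0.01M CaCl2, pH 7.5 containing 8-12% Me2SO. First-order kobs came from ln(vt/vo) versus time plots.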

bovine thrombin = biological target: T3, bovine thrombin (Bos taurus, UniProt P00735); experiment: Inactivation rate of bovine thrombin; assay type: biochemical; settings: read-out: kobs/[I]
T3 construct: bovine thrombin
Procedure, shortened: as §1

cathepsin G = biological target: T4, cathepsin G (Homo sapiens, UniProt P08311); experiment: Inactivation of cathepsin G; assay type: biochemical; settings: for kinact/KI: pH 7.5, 25° C, read-out: kobs/[I]
T4 construct: from tissue; host or cells: human leukocytes
T4 sequence (P08311 21-255): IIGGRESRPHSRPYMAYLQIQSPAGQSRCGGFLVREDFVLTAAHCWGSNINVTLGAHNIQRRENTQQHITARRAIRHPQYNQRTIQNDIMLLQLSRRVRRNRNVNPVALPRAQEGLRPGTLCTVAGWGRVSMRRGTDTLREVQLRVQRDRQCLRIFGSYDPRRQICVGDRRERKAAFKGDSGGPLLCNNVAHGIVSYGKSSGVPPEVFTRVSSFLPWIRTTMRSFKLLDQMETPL

[3] = biological target: T5, porcine pancreatic kallikrein (Sus scrofa, UniProt P00752); experiment: Inactivation rate of porcine pancreatic kallikrein; assay type: biochemical; settings: Table I, read-out: kobs/[I]
T5 construct: from tissue; host or cells: porcine pancreas (from the name)

[4] = Table I, pH 7.5, 25° C, [I] 1 to 12 μM
[5] = Table I, pH 7.5, 25° C, [I] 0.3 to 400 μM
[6] = pH 7.5, 25° C, [I] 0.4 to 300 μM
[7] = pH 7.5, Table I, progress curve method
[8] = pH 7.5, same concentration of enzyme and inhibitor
[9] = pH 7.5, Table I, same concentration of enzyme and inhibitor

T5 sequence (P00752 8-246): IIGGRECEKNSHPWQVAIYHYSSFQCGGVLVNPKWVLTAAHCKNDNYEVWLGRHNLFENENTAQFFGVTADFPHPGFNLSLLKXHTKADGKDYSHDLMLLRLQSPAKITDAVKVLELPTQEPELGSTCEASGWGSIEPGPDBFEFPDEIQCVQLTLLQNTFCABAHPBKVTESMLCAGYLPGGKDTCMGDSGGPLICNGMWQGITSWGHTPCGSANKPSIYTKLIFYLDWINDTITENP

With O=c1oc(Cl)c(Cl)c2ccccc12 [3,4-dichloroisocoumarin, reference compound] as the compound, how does the PT ([1]; [I] 33 μM) read?
Its PT is 12.4 s.

And the APTT ([2]; [I] 33 μM)?
The APTT was 26.6 s.

What about the APTT ([2]; [I] 45 μM) of the same compound?
The APTT was 26.0 s.

And the kinact/KI (Cl^- r)?
The kinact/KI was 42 M⁻¹ s⁻¹.

What does the source list for N=C(N)SCCOc1oc(=O)c2ccccc2c1Cl [3-(2-isothiureidoethoxy)-4-chloroisocoumarin]?
kinact/KI (chymotrypsin; Table IV, [I] 0.004 to 0.33 mM): 1300 M⁻¹ s⁻¹; kinact/KI (bovine trypsin; [4]): 32000 M⁻¹ s⁻¹; kinact/KI (bovine thrombin; [5]): 4700 M⁻¹ s⁻¹; kinact/KI (cathepsin G; Table IV, [I] 0.002 to 0.35 mM): 110 M⁻¹ s⁻¹; kinact/KI [3, 6]: 12000 M⁻¹ s⁻¹

What does the source list for NCCCOc1oc(=O)c2ccccc2c1Cl [3-(3-aminopropoxy)-4-chloroisocoumarin]?
kinact/KI (chymotrypsin; Table IV, [I] 0.004 to 0.33 mM): 580 M⁻¹ s⁻¹; kinact/KI (bovine trypsin; [4]): 7600 M⁻¹ s⁻¹; kinact/KI (bovine thrombin; [5]): 350 M⁻¹ s⁻¹; kinact/KI (cathepsin G; Table IV, [I] 0.002 to 0.35 mM): 260 M⁻¹ s⁻¹; kinact/KI [3, 6]: 860 M⁻¹ s⁻¹

What does the source list for N=C(N)SCCCOc1oc(=O)c2ccccc2c1Cl [3-(3-isothiureidopropoxy)-4-chloroisocoumarin]?
PT ([1]; [I] 31 μM): 12.3 s; kinact/KI (chymotrypsin; Table IV, [I] 0.004 to 0.33 mM): 1700 M⁻¹ s⁻¹; APTT ([2]; [I] 31 μM): 25.8 s; kinact/KI (bovine trypsin; [4]): 46000 M⁻¹ s⁻¹; kinact/KI (bovine thrombin; [5]): 1430 M⁻¹ s⁻¹; kinact/KI (Cl^- r): 6610 M⁻¹ s⁻¹; kinact/KI (cathepsin G; Table IV, [I] 0.002 to 0.35 mM): 83 M⁻¹ s⁻¹; kinact/KI [3, 6]: 19000 M⁻¹ s⁻¹

For N=C(N)SCCCOc1oc(=O)c2cc(N)ccc2c1Cl [7-amino-4-chloro-3-(3-isothiureidopropoxy)isocoumarin], which PT ([1]; [I] 29 μM) is on record?
Its PT is 19.4 s.

And the kinact/KI (chymotrypsin; Table IV, [I] 0.004 to 0.33 mM)?
The kinact/KI was 1600 M⁻¹ s⁻¹.

What about the APTT ([2]; [I] 2.9 μM) of the same compound?
The APTT was 100.8 s.

And the APTT ([2]; [I] 29 μM)?
Its APTT is over 120 s.

And the kinact/KI (bovine trypsin; [7])?
The kinact/KI was 410000 M⁻¹ s⁻¹.

And the kinact/KI (bovine thrombin; [5])?
The kinact/KI was 630 M⁻¹ s⁻¹.

And the kinact/KI (Cl^- r)?
Its kinact/KI is 1320 M⁻¹ s⁻¹.

What about the kinact/KI (cathepsin G; Table IV, [I] 0.002 to 0.35 mM) of the same compound?
The kinact/KI was 36 M⁻¹ s⁻¹.

What about the kinact/KI [3, 8] of the same compound?
Its kinact/KI is over 110000 M⁻¹ s⁻¹.

Which PT ([1]; [I] 21 μM) does the source give for CCOc1oc(=O)c2cc(NC(=N)N)ccc2c1Cl [7-guanidino-3-ethoxy-4-chloroisocoumarin, 7-guanidino-4-chloro-3-ethoxyisocoumarin] here?
The PT was 22.4 s.

And the PT ([1]; [I] 53 μM)?
The PT was 31.4 s.

And the PT ([1]; [I] 75 μM)?
Its PT is 44.2 s.

And the PT ([1]; [I] 107 μM)?
The PT was 80 s.

What about the kinact/KI (chymotrypsin; Table IV, [I] 0.004 to 0.33 mM) of the same compound?
Its kinact/KI is 37000 M⁻¹ s⁻¹.

And the APTT ([2]; [I] 4.3 μM)?
Its APTT is 74.8 s.

And the APTT ([2]; [I] 21 μM)?
The APTT was over 120 s.

What about the APTT ([2]; [I] 53 μM) of the same compound?
Its APTT is over 120 s.

And the APTT ([2]; [I] 107 μM)?
Its APTT is over 120 s.

What about the kinact/KI (bovine trypsin; [9]) of the same compound?
The kinact/KI was over 110000 M⁻¹ s⁻¹.

And the kinact/KI (bovine thrombin; [9])?
Its kinact/KI is over 55000 M⁻¹ s⁻¹.

And the kinact/KI (Cl^- r)?
The kinact/KI was 239 M⁻¹ s⁻¹.

And the kinact/KI (cathepsin G; Table IV, [I] 0.002 to 0.35 mM)?
Its kinact/KI is 84000 M⁻¹ s⁻¹.

And the kinact/KI [3, 8]?
The kinact/KI was over 200000 M⁻¹ s⁻¹.

What does the source list for COc1cc2ccc(NC(=N)N)cc2c(=O)o1 [7-guanidino-3-methoxyisocoumarin]?
kinact/KI (chymotrypsin; Table IV, [I] 0.004 to 0.33 mM): 270 M⁻¹ s⁻¹; kinact/KI (bovine trypsin; [4]): 3300 M⁻¹ s⁻¹; kinact/KI (bovine thrombin; [5]): 4900 M⁻¹ s⁻¹; inhibition at 490 µM (cathepsin G; Table IV, not time dependent, at 0.49 mM): 81%; kinact/KI [3, 6]: 1900 M⁻¹ s⁻¹

What does the source list for N=C(N)Nc1ccc2c(Cl)c(OCCc3ccccc3)oc(=O)c2c1 [7-guanidino-4-chloro-3-(2-phenylethoxy)isocoumarin]?
PT ([1]; [I] 27 μM): 13.0 s; kinact/KI (chymotrypsin; Table IV, [I] 0.004 to 0.33 mM): 38000 M⁻¹ s⁻¹; APTT ([2]; [I] 27 μM): 57.3 s; kinact/KI (bovine trypsin; [9]): > 110000 M⁻¹ s⁻¹; kinact/KI (bovine thrombin; [9]): > 30000 M⁻¹ s⁻¹; kinact/KI (Cl^- r): 342 M⁻¹ s⁻¹; kinact/KI (cathepsin G; Table IV, [I] 0.002 to 0.35 mM): 66000 M⁻¹ s⁻¹; kinact/KI [3, 8]: 200000 M⁻¹ s⁻¹

What does the source list for COc1oc(=O)c2cc(NC(=N)N)ccc2c1Cl [7-guanidino-4-chloro-3-methoxyisocoumarin]?
PT ([1]; [I] 21 μM): 16.5 s; kinact/KI (chymotrypsin; Table IV, [I] 0.004 to 0.33 mM): 7200 M⁻¹ s⁻¹; APTT ([2]; [I] 21 μM): 83.8 s; kinact/KI (bovine trypsin; [7]): 310000 M⁻¹ s⁻¹; kinact/KI (bovine thrombin; [7]): 290000 M⁻¹ s⁻¹; kinact/KI (Cl^- r): 75 M⁻¹ s⁻¹; kinact/KI (cathepsin G; Table IV, [I] 0.002 to 0.35 mM): 11000 M⁻¹ s⁻¹; kinact/KI ([3]; pH 7.5, progress curve method): 45000 M⁻¹ s⁻¹

Which results are given for N=C(N)SCCOc1oc(=O)c2cc(NC(=O)Nc3ccccc3)ccc2c1Cl [PhNHCONH-CiTEtOIC, 7-(phenylcarbamoylamino)-4-chloro-3-(2-isothiureidoethoxy)isocoumarin]?
kinact/KI (chymotrypsin; Table X, [I] 0.9-43 μM): 16000 M⁻¹ s⁻¹; kinact/KI (bovine trypsin; Table VIII, pH 7.5, 25° C, [I] 1.1-4.6 μM): 21000 M⁻¹ s⁻¹; kinact/KI (bovine thrombin; Table VIII, pH 7.5, 25° C, [I] 1.2-54 μM): 25000 M⁻¹ s⁻¹; kinact/KI (cathepsin G; Table X, [I] 33-46 μM): 100 M⁻¹ s⁻¹
